Data: patent US8618179B2, “Composition comprising a pesticide and an alkoxylate of 2-propylheptylamine” (BASF SE, priority 2010, dated 2013)

Columns and labels:
Brachiarea multica = experiment: Field trial, glyphosate SL formulation with amine alkoxylate against weed; format: in vivo; conditions: glyphosate-isopropylammonium SL spray solution with amine alkoxylate, visual estimate
Description: To this end, in each case 1.0 l of spray solution (see table 1) was sprayed per plot using a manual sprayer. 1.0 l of the spray solution contained 7.5 ml of an aqueous formulation of dissolved glyphosate-isopropyl-ammonium salt. To prepare this formulation, 100 ml of amine alkoxylate of example 2 were previously made up to 1.0 l with 46% strength glyphosate-isopropylammonium salt solution. Two, five and seven days after the application, the destruction of the weed was estimated visually in percent. Rain fell repeatedly in the days between application and assessment.

[1] = Storage stability of glyphosate formulation with amine alkoxylate; format: physicochemical; conditions: temperatures of from 5 to +55° C.
From the text: Also, the formulation was rainfast.

[2] = Gelling upon addition of amine alkoxylate to glyphosate solution; format: physicochemical; conditions: addition at 20° C.
Daphnia magna = experiment: Water toxicity on Daphnia magna, OECD Guideline 202 part 1; format: in vivo; conditions: 48 h
[3] = test system: winter oilseed rape (cultivar Remy); experiment: Greenhouse test, glyphosate SL formulation on oilseed rape; format: in vivo; conditions: Table 2; 140 g of glyphosate/ha and 300 g of amine alkoxylate/ha
Description: A concentrated formulation comprising glyphosate isopropylammonium in solution in water and amine alkoxylate from Example 2 was diluted with deionized water and applied at a water application rate of 375 l/ha (140 g of glyphosate/ha and 300 g of amine alkoxylate/ha). The temperatures in the experimental period, which lasted for 3 to 4 weeks, were between 18-35° C. During this time, the experimental plants received optimum watering, with nutrients being supplied via the water used for watering. The herbicidal activity was evaluated by awarding scores to the treated plants in comparison to the untreated control plants (Table 2). […] Conversely, 0% activity means that there were no differences between treated and untreated plants. […] The application rate was 140 g of glyphosate/ha and 300 g of amine alkoxylate/ha.

[4] = test system: Ambrosia artemisiifolia (AMBEL); experiment: Greenhouse test, imazamox SL formulation on Ambrosia; format: in vivo; conditions: scored after 14 days; 10 g of imazamox/ha and 400 g of amine alkoxylate/ha
Description: (§1) The herbicidal activity was evaluated by awarding scores to the treated plants in comparison to the untreated control plants (Table 2). The evaluation scale ranges from 0% to 100% activity. 100% activity means the complete death at least of those parts of the plant that are above ground. Conversely, 0% activity means that there were no differences between treated and untreated plants.
(§2) The application rate was 10 g of imazamox/ha and 400 g of amine alkoxylate/ha. For comparison, a tallow fatty amine ethoxylate with 12 ethylene oxide units was used (liquid, approximately 100% content, molar mass approximately 730 g/mol (calculated from OH number), available commercially as Lutensol® FA12K from BASF SE).

[5] = test system: Chenopodium album (CHEAL); experiment: Greenhouse test, imazamox SL formulation on Chenopodium; format: in vivo; conditions: scored after 14 days; 10 g of imazamox/ha and 400 g of amine alkoxylate/ha
Description: as §1, §2

## 2-propylheptylamine ethoxylate [2-PHamine-7 EO]
Brachiarea multica; 2 days after application
  Proportion [%] of weed destroyed: 40%
Brachiarea multica; 5 days after application
  Proportion [%] of weed destroyed: 87.5%
Brachiarea multica; 7 days after application
  Proportion [%] of weed destroyed: 90%
[1]
  Storage stability of the formulation: storage-stable for at least two weeks
[2]
  Gelling upon addition to the glyphosate solution: no gelling observed
Daphnia magna
  EC50: 60 µg/mL
[3]
  Activity [%] after 14 days: 75%
  Activity [%] after 21 days: 86%
[4]
  Activity [%] AMBEL: 80%
[5]
  Activity [%] CHEAL: 93%
